What was measured:
Format in all cases: in vivo
[1] = test system: Spodoptera littoralis; assay: Spodoptera littoralis (Egyptian cotton leafworm) leaf disc test; details: foliar, 72 h, 200 ppm sprayed on cotton leaf discs, L1 larvae, mortality, feeding behavior, growth regulation 3 DAT
Text: Spodoptera littoralis (Egyptian cotton leafworm): Cotton leaf discs were placed on agar in a 24-well microtiter plate and sprayed with test solutions at an application rate of 200 ppm. After drying, the leaf discs were infested with 5 L1 larvae. The samples were checked for mortality, feeding behavior, and growth regulation 3 days after treatment (DAT).

[2] = test system: Heliothis virescens; assay: Heliothis virescens (Tobacco budworm) egg/artificial diet test; details: 96 h, 200 ppm (concentration in well 18 ppm), eggs on artificial diet, 4 days, egg mortality, larval mortality, growth regulation
Description: Heliothis virescens (Tobacco budworm): Eggs (0-24 h old) were placed in 24-well microtiter plate on artificial diet and treated with test solutions at an application rate of 200 ppm (concentration in well 18 ppm) by pipetting. After an incubation period of 4 days, samples were checked for egg mortality, larval mortality, and growth regulation.

[3] = test system: Plutella xylostella; assay: Plutella xylostella (Diamond back moth) artificial diet test; details: 144 h, 200 ppm (concentration in well 18 ppm), L2 larvae, 6 days, larval mortality and growth regulation
Description: Plutella xylostella (Diamond back moth): 24-well microtiter plate (MTP) with artificial diet was treated with test solutions at an application rate of 200 ppm (concentration in well 18 ppm) by pipetting. After drying, the MTP's were infested with L2 larvae (7-12 per well). After an incubation period of 6 days, samples were checked for larval mortality and growth regulation.

[4] = test system: Diabrotica balteata; assay: Diabrotica balteata (Corn root worm) artificial diet test; details: 120 h, 200 ppm (concentration in well 18 ppm), L2 larvae, 5 days, larval mortality and growth regulation
Description: Diabrotica balteata (Corn root worm): A 24-well microtiter plate (MTP) with artificial diet was treated with test solutions at an application rate of 200 ppm (concentration in well 18 ppm) by pipetting. After drying, the MTP's were infested with L2 larvae (6-10 per well). After an incubation period of 5 days, samples were checked for larval mortality and growth regulation.

[5] = test system: Thrips tabaci; assay: Thrips tabaci (Onion thrips) leaf disc test; details: foliar, 168 h, 200 ppm sprayed on sunflower leaf discs, population of mixed ages, 7 days, mortality
Description: Thrips tabaci (Onion thrips): Sunflower leaf discs were placed on agar in a 24-well microtiter plate and sprayed with test solutions at an application rate of 200 ppm. […] After an incubation period of 7 days, samples were checked for mortality.

[6] = test system: Tetranychus urticae; assay: Tetranychus urticae (Two-spotted spider mite) leaf disc test; details: foliar, 192 h, 200 ppm sprayed on bean leaf discs, mite populations of mixed ages, 8 days, egg, larval and adult mortality
Text: Tetranychus urticae (Two-spotted spider mite): Bean leaf discs on agar in 24-well microtiter plates were sprayed with test solutions at an application rate of 200 ppm. After drying, the leaf discs are infested with mite populations of mixed ages. 8 days later, discs are checked for egg mortality, larval mortality, and adult mortality.

[7] = test system: Myzus persicae; assay: Myzus persicae (Green peach aphid) leaf disc test; details: foliar, 144 h, 200 ppm sprayed on sunflower leaf discs, aphid population of mixed ages, 6 DAT, mortality
Description: Myzus persicae (Green peach aphid): Sunflower leaf discs were placed on agar in a 24-well microtiter plate and sprayed with test solutions at an application rate of 200 ppm. After drying, the leaf discs were infested with an aphid population of mixed ages. After an incubation period of 6 DAT, samples were checked for mortality.

Measured: pest or weed control at 200 ppm

CCN(C(=O)c1ccncc1)c1cccc(C(=O)Nc2c(Br)cc(C(F)(C(F)(F)F)C(F)(F)F)cc2C2CC2)c1F [Compound 15]
≥ 80%: all assays above

CCN(C(=O)c1cc[n+]([O-])cc1)c1cccc(C(=O)Nc2c(Br)cc(C(F)(C(F)(F)F)C(F)(F)F)cc2C2CC2)c1F [Compound 16]
≥ 80%: all assays above

CCN(C(=O)c1cc[n+]([O-])cc1)c1cccc(C(=O)Nc2c(Br)cc(C(F)(C(F)(F)F)C(F)(F)F)cc2OC(F)F)c1F [Compound 17]
≥ 80%: all assays above

From patent US9635853B2, “Insecticidal compounds” (Syngenta Participations AG, priority 2013, dated 2017)
